In article PMC9886975, “Ligand recognition mechanism of the human relaxin family peptide receptor 4 (RXFP4)” (Nature Communications, 2023):
Values joined by “and” are separate entries in the source; they are usually repeats but may differ in a detail not shown here. Equal entries are not always repeated. Where two headings read alike, the source gives them in different places.

Tests used:
Type in all cases: cell-based
[1] = target: T1, RXFP4 F105A (Homo sapiens, UniProt Q8TDU9, F105A); experiment: cAMP accumulation, RXFP4 F105A
T1 construct: RXFP4(1-374)-; expressed in transfected cells; host or cells: HEK293T, transient (pCMV6)
From the text: (§1) The full-length human RXFP4 (NCBI Reference Sequence: NM_181885.3) was cloned into a modified pFastBac vector (Invitrogen) with HA signal peptide to enhance receptor expression, followed by a 10× histidine tag and BRIL insertion at the N terminus. LgBiT subunit (Promega) was fused at the C terminus of RXFP4 connected by a 15-amino acid polypeptide linker. […] The engineered human Gαi2, Gβ1, bovine Gγ2, and scFv16 were cloned into the pFastBac vector (Invitrogen), respectively. For cAMP accumulation assay, human RXFP4 and RXFP3 (NCBI Reference Sequence: NM_016568.3) were cloned into pCMV6 constructs (OriGene Technologies). The mutant receptors were modified by site-directed mutagenesis in the setting of the WT constructs, with the primers designed by QuikChange Primer Design [QuickChange Primer Design (http://agilent.com.cn)] and carried out using Phanta Max Master (Vazyme). N-terminal Flag tag was added to both WT and mutant receptors for surface expression measurement. Sequences of all primers used in this study were provided in Supplementary Table 6, and all the constructs were confirmed by DNA sequencing.
(§2) CHO-K1 (ATCC, Cat#CCL-61) cells stably expressing human RXFP4 (hRXFP4-CHO) or RXFP3 (hRXFP3-CHO) were maintained in DMEM/F12 (Gibco) supplemented with 10% (v/v) fetal bovine serum (FBS) and 2 mM L-glutamine. Human embryonic kidney 293 T cells containing SV40 large T-antigen (HEK293T, ATCC, Cat#64127316) were maintained in DMEM (Gibco) supplemented with 10% (v/v) FBS, 1 mM sodium pyruvate (Gibco), 100 units/mL penicillin and 100 μg/mL streptomycin at 37 °C in 5% CO2. For cAMP assays in mutants, HEK293T cells were seeded onto 6-well cell culture plates at a density of 7 × 10^5 cells per well. After overnight incubation, cells were transfected with WT or mutant receptors using Lipofectamine 3000 transfection reagent (Invitrogen). Following 24 h culturing, the transfected cells were ready for detection.
(§3) Ligands were verified for their bioactivity in the beginning in hRXFP4-CHO, which were ready for use after 24 h culturing. For assaying mutants, HEK293T cells were used 24 h post transfection. Cells were digested with 0.02% (w/v) EDTA and seeded onto 384-well microtiter plates at a density of 8 × 10^5 cells/mL in cAMP stimulation buffer [HBSS supplemented with 5 mM HEPES, 0.1% (w/v) bovine serum albumin (BSA) and 0.5 mM 3-isobutyl-1-methylxanthine]. The cells were stimulated with different concentrations of ligands plus 1.5 μM forskolin in RXFP4 and 4 μM forskolin in RXFP3. […] The time-resolved fluorescence resonance energy transfer (TR-FRET) signals were detected by an EnVision multilabel plate reader (PerkinElmer) with the emission window ratio of 665 nm over 620 nm under 320 nm excitation. […]
(§4) Inhibition of forskolin-induced cAMP accumulation was performed in HEK293T cells transiently transfected with WT and mutant receptors. All the mutant constructs were modified by single-point mutation in the setting of the WT receptor. cAMP accumulation data were analyzed using a three-parameter logistic equation to determine pEC50 and Emax values. Emax values for mutants are defined as the window between the maximal response and vehicle control (no ligand) and expressed as a percentage of the WT. Cell surface expression was assessed by flow cytometry to detect the N-terminal Flag epitope label on the receptors and normalized to the WT receptor (shown as percentage). […]

[2] = target: T2, RXFP4 R194A (Homo sapiens, UniProt Q8TDU9, R194A); experiment: cAMP accumulation, RXFP4 R194A
T2 construct: RXFP4(1-374)-; expressed in transfected cells; host or cells: HEK293T, transient (pCMV6)
From the text: as §1, §2, §3, §4

[3] = target: T3, RXFP4 WT (Homo sapiens, UniProt Q8TDU9); experiment: cAMP accumulation, WT RXFP4 (HEK293T); conditions: 1.5 μM forskolin, mean ± S.E.M.; for EC50: 40 min RT, TR-FRET, n = 6 to 8
T3 construct: RXFP4(1-374)-; expressed in transfected cells; host or cells: HEK293T, transient (pCMV6)
From the text: as §1
as §2, with “After overnight incubation, cells were transfected with WT or mutant receptors using Lipofectamine 3000 transfection reagent (Invitrogen).” left out
(§5) Ligands were verified for their bioactivity in the beginning in hRXFP4-CHO, which were ready for use after 24 h culturing. […] The time-resolved fluorescence resonance energy transfer (TR-FRET) signals were detected by an EnVision multilabel plate reader (PerkinElmer) with the emission window ratio of 665 nm over 620 nm under 320 nm excitation. […]
as §4

[4] = target: T4, human RXFP4 (Homo sapiens, UniProt Q8TDU9); experiment: inhibition of forskolin-induced cAMP accumulation, WT RXFP4 (hRXFP4-CHO)
T4 construct: expressed in transfected cells
Procedure: as §2, §3
All functional study data were analyzed using GraphPad Prism 8.3 (GraphPad Software) and presented as means ± S.E.M. from at least three independent experiments. Dose-response curves were evaluated with a three-parameter logistic equation. The significance was determined with either a two-tailed Student’s t-test or one-way ANOVA with Dunnett’s multiple comparison test, and P < 0.05 was considered statistically significant.

[5] = target: T5, RXFP4 H299A (Homo sapiens, UniProt Q8TDU9, H299A); experiment: cAMP accumulation, RXFP4 H299A
T5 construct: RXFP4(1-374)-; expressed in transfected cells; host or cells: HEK293T, transient (pCMV6)
From the text: as §1, §2, §3, §4

[6] = target: T6, RXFP4 T295V (Homo sapiens, UniProt Q8TDU9, T295V); experiment: cAMP accumulation, RXFP4 T295V
T6 construct: RXFP4(1-374)-; expressed in transfected cells; host or cells: HEK293T, transient (pCMV6)
From the text: as §1
as §2, with “After overnight incubation, cells were transfected with WT or mutant receptors using Lipofectamine 3000 transfection reagent (Invitrogen).” left out
as §5, §4

[7] = target: T7, RXFP4 K273A (Homo sapiens, UniProt Q8TDU9, K273A); experiment: cAMP accumulation, RXFP4 K273A
T7 construct: RXFP4(1-374)-; expressed in transfected cells; host or cells: HEK293T, transient (pCMV6)
From the text: as §1
as §2, with “After overnight incubation, cells were transfected with WT or mutant receptors using Lipofectamine 3000 transfection reagent (Invitrogen).” left out
as §5, §4

[8] = target: T8, RXFP4 W97A (Homo sapiens, UniProt Q8TDU9, W97A); experiment: cAMP accumulation, RXFP4 W97A
T8 construct: RXFP4(1-374)-; expressed in transfected cells; host or cells: HEK293T, transient (pCMV6)
From the text: as §1, §2, §3, §4

[9] = target: T9, RXFP4 L118S+V122S (Homo sapiens, UniProt Q8TDU9, L118S/V122S); experiment: cAMP accumulation, RXFP4 L118S+V122S; conditions: HEK293T
T9 construct: RXFP4(1-374)-; expressed in transfected cells; host or cells: HEK293T, transient (pCMV6)
From the text: as §1
as §2, with “After overnight incubation, cells were transfected with WT or mutant receptors using Lipofectamine 3000 transfection reagent (Invitrogen).” left out
as §5, §4

[10] = HEK293T, 1.5 μM forskolin, mean ± S.E.M., n = 3, read-out: pEC50 (converted)
[11] = HEK293T, 1.5 μM forskolin, mean ± S.E.M., n = 3, N.A., not active, read-out: pEC50 (converted)

T3 sequence (Q8TDU9 whole entry): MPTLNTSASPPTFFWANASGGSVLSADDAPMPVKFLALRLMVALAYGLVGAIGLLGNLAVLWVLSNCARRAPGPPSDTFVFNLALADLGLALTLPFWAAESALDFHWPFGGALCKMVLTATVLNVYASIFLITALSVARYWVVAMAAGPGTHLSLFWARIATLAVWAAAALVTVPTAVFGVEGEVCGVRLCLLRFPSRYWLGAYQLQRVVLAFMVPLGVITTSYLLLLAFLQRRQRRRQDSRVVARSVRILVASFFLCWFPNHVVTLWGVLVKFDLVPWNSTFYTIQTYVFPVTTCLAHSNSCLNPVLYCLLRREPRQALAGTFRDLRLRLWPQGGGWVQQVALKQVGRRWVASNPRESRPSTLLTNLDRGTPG
T4 sequence (Q8TDU9 whole entry): as above
T8 sequence (Q8TDU9 whole entry W97A): as the sequence (Q8TDU9 whole entry) above, with W97A counted along it
T1 sequence (Q8TDU9 whole entry F105A): as the sequence (Q8TDU9 whole entry) above, with F105A counted along it
T5 sequence (Q8TDU9 whole entry H299A): as the sequence (Q8TDU9 whole entry) above, with H299A counted along it
T6 sequence (Q8TDU9 whole entry T295V): as the sequence (Q8TDU9 whole entry) above, with T295V counted along it
T9 sequence (Q8TDU9 whole entry L118S/V122S): as the sequence (Q8TDU9 whole entry) above, with L118S, V122S counted along it
T7 sequence (Q8TDU9 whole entry K273A): as the sequence (Q8TDU9 whole entry) above, with K273A counted along it
T2 sequence (Q8TDU9 whole entry R194A): as the sequence (Q8TDU9 whole entry) above, with R194A counted along it

CC[C@H](C)[C@@H]1NC(=O)[C@H](Cc2ccc(O)cc2)NC(=O)[C@H]([C@@H](C)CC)NC(=O)[C@H](C(C)C)NC(=O)[C@H]([C@@H](C)O)NC(=O)[C@H](CCCNC(=N)N)NC(=O)[C@H]([C@@H](C)CC)NC(=O)[C@H](Cc2ccc(O)cc2)NC(=O)[C@H](CCC(=O)O)NC(=O)[C@H](CC(C)C)NC(=O)CNC(=O)[C@@H](NC(=O)[C@H](CC(C)C)NC(=O)[C@H](CCCNC(=N)N)NC(=O)[C@@H](NC(=O)[C@H](CO)NC(=O)[C@H](CCC(=O)O)NC(=O)[C@@H](N)CCCCN)C(C)C)CSSC[C@@H]2NC(=O)[C@@H](NC(=O)[C@H](CC(C)C)NC(=O)[C@@H](NC(=O)[C@H](CCC(N)=O)NC(=O)[C@H](CC(C)C)NC(=O)[C@H](CC(=O)O)NC(=O)[C@@H](N)CCC(N)=O)[C@@H](C)O)CSSC[C@H](NC(=O)CNC(=O)[C@H](CC(=O)O)NC(=O)[C@H]([C@@H](C)O)NC2=O)C(=O)N[C@@H](CO)C(=O)N[C@@H](CCSC)C(=O)N[C@@H]([C@@H](C)O)C(=O)N[C@@H](CC(=O)O)C(=O)N[C@@H](CC(C)C)C(=O)N[C@@H](CO)C(=O)N[C@@H](C)C(=O)N[C@@H](CC(C)C)C(=O)N[C@H](C(=O)O)CSSC[C@@H](C(=O)N[C@@H](C)C(=O)N[C@@H](CO)C(=O)N[C@@H](CO)C(=O)N[C@@H](CCCNC(=N)N)C(=O)N[C@@H](Cc2c[nH]c3ccccc23)C(=O)O)NC1=O [INSL5, insulin-like peptide 5]
EC50 [1]: 10 nM
Emax ([1]; HEK293T, mean ± S.E.M.): 80.16 ± 4.08 % WT
EC50 [2]: 1.66 nM
Emax ([2]; HEK293T, mean ± S.E.M.): 79.76 ± 6.06 % WT
Emax ([3]; HEK293T): 99.88 ± 2.28 % WT and 98.86 ± 3.65 % WT
EC50 ([3]; pEC50, HEK293T): 0.759 nM and 0.955 nM
EC50 [4]: 1.58 nM
EC50 [5]: 0.955 nM
Emax ([5]; HEK293T, mean ± S.E.M.): 30.77 ± 3.77 % WT
EC50 [6]: 0.692 nM
Emax ([6]; HEK293T, mean ± S.E.M.): 91.17 ± 6.47 % WT
EC50 [7]: 3.55 nM
Emax ([7]; HEK293T, mean ± S.E.M.): 58.10 ± 7.38 % WT
EC50 [8]: 15.5 nM
Emax ([8]; HEK293T, mean ± S.E.M.): 61.33 ± 5.34 % WT
response [9]: inactive

CCOc1cc2c(cc1OC)CCN(C(=O)N1CCOCC1)[C@H]2CCc1c[nH]c2ccc(OC)cc12 [DC591053, (S)-(7-ethoxy-6-methoxy-1-(2-(5-methoxy-1H-indol-3-yl)ethyl)−3,4-dihydroisoquinolin-2(1H)-yl)(morpholino)methanone]
decrease of potency vs WT ([1]; HEK293T): 4.9 fold
EC50 [1, 10]: 170 nM
Emax ([1]; HEK293T, mean ± S.E.M.): 57.39 ± 4.17 % WT
decrease of potency vs WT ([2]; HEK293T): 8.1 fold
EC50 [2, 10]: 282 nM
Emax ([2]; HEK293T, mean ± S.E.M.): 81.10 ± 7.60 % WT
EC50 ([3]; HEK293T, read-out: pEC50 (converted)): 34.7 nM
Emax ([3]; HEK293T): 97.18 ± 3.11 % WT
agonism ([4]; stably-transfected CHO-K1): full agonism
EC50 ([4]; stably-transfected CHO-K1, 1.5 μM forskolin, 40 min RT, TR-FRET, mean ± S.E.M., n = 3, read-out: pEC50 (converted)): 57.5 nM
reduction of Emax vs WT ([5]; HEK293T): 65%
EC50 [5, 11]: 3.63 nM
Emax ([5]; HEK293T, mean ± S.E.M.): 36.04 ± 4.01 % WT
EC50 ([6]; HEK293T, 1.5 μM forskolin, mean ± S.E.M., n = 3 to 5, read-out: pEC50 (converted)): 64.6 nM
Emax ([6]; HEK293T, mean ± S.E.M.): 30.00 ± 4.54 % WT
EC50 ([7]; HEK293T, 1.5 μM forskolin, mean ± S.E.M., n = 3 or 4, read-out: pEC50 (converted)): 1860 nM
Emax ([7]; HEK293T, mean ± S.E.M.): 68.51 ± 8.34 % WT
decrease of potency vs WT ([8]; HEK293T): 1.6 fold
EC50 [8, 11]: 56.2 nM
Emax ([8]; HEK293T, mean ± S.E.M.): 108.65 ± 10.04 % WT
decrease of potency vs WT [9]: 20.9 fold
EC50 ([9]; 1.5 μM forskolin, mean ± S.E.M., n = 3, N.A., not active): 724 nM
Emax ([9]; mean ± S.E.M.): 84.85 ± 8.36 % WT
